Where “and” joins values, the source holds several entries; their conditions need not be identical. Equal values may be shown once.
Columns and labels:
[1] = cited from earlier work
[2] = molecular target: T1, bovine activated Factor X (Bos taurus, UniProt P00743); experiment: Apixaban-calibrated anti-Xa activity (aXa) chromogenic bioassay on plasma of dosed dogs; type: in vivo
T1 construct: purchased Diagnostica Stago STA Liquid anti-Xa
Experimental: Coagulation assays were performed on platelet-poor, citrated plasma samples by a reference laboratory (Comparative Coagulation Laboratory, Animal Health Diagnostic Center, Ithaca, NY). […] The assay is configured with a bovine activated Factor X reagent that is added in excess to the test plasma and a chromogenic substrate of Factor Xa (STA Liquid anti-Xa, Diagnostica Stago). Residual, uninhibited Factor Xa cleaves the chromogenic substrate such that the inverse of the color change in the reaction mixture is proportional to the drug concentration in the test plasma. […] A mechanical endpoint method (STA Compact, Diagnostica Stago) and human coagulation reagents were used to measure prothrombin time (Thromboplastin LI, Helena Diagnostics, Beaumont, TX) and activated partial thromboplastin time (Dade Actin FS, Dade Behring, Newark, DE). […] Tissue-factor (1:50,000 final dilution) activated TEG was performed using standard equipment (TEG-5000, Haemonetics, Braintree, MA) as previously reported ([35]), with assays conducted per established guidelines ([36]), with a modification to eliminate the rest time to facilitate rapid sample processing. Thromboelastography assays were conducted by experienced operators using four TEG channels and tracings terminated after maximum amplitude was established. Four values were extracted from TEG tracings: reaction time (R-time), clot formation time (K-time), clot formation angle (alpha), and maximum amplitude (MA).
Pairwise comparisons between continuous variables were conducted with Wilcoxon matched-pairs signed rank test, while comparisons of more than two groups were conducted using the Friedman test with Dunn's post-hoc adjustment. Specifically, the Wilcoxon matched-pairs signed rank tests were used to compare the complete blood count and serum chemistry values between baseline and the +24 h time point. Comparisons of pharmacodynamic variables between baseline values and those at discrete sampling intervals were performed using the Friedman test with Dunn's post-hoc correction for multiple comparisons. […] Alpha was set at 0.05. Statistical analyses were performed using commercial software (Prism 9, GraphPad, La Jolla, CA).

prothrombin time = details: in vitro, dog plasma fortified with apixaban; cited from earlier work
[3] = horses, cited from earlier work

T1 sequence (P00743 234-492 limits assumed): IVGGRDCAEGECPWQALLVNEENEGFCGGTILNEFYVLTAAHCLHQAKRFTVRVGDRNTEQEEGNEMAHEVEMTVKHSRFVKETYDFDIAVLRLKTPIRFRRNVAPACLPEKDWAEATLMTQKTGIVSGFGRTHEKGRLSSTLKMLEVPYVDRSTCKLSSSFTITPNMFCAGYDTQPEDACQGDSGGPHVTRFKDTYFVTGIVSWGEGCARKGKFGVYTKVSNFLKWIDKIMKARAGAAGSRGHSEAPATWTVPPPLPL
T1 sequence (P00743 41-180 limits assumed): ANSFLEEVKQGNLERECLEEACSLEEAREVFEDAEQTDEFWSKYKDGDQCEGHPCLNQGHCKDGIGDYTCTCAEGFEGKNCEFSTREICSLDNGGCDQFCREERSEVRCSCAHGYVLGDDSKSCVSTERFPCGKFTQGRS

COc1ccc(-n2nc(C(N)=O)c3c2C(=O)N(c2ccc(N4CCCCC4=O)cc2)CC3)cc1 [apixaban]
protein-bound [1]: over 90% | time to maximal plasma concentrations ([1]; dogs, 0.5 mg/kg IV or PO): 2.8 h | oral bioavailability ([1]; dogs, 0.5 mg/kg, liquid formulation with methylcellulose and polysorbate 80): 80% | standard PT ([1]; dogs, Thromboplastin C-Plus reagent): not the standard PT | factor Xa-dependent clotting time test (HEPTEST) ([1]; dogs): prolonged | mean aXa activity following intravenous injection ([2]; IV 0.18 mg/kg, at mean plasma concentration […]): 650 ng/mL | Emax (anti-Xa activity) ([2]; IV, mean dose 0.18 mg/kg, model E=(Emax x C)/(C+EC50)): 1400.5 ng/mL | mean aXa activity compared with human values ([2]; PO 0.2 mg/kg): remained below values typically observed for human moderate to high dose anticoagulant effect | aXa corresponding to the mean maximum observed plasma concentration ([2]; PO 0.2 mg/kg, 6 h post-dosing): 128 ng/mL | time of peak aXa activity ([2]; following oral administration 0.2 mg/kg): approximately 5 h | concentration required to double the prothrombin time (prothrombin time): 3,079 ng/ml and 6.7 μM | plasma concentrations after oral administration ([3]; oral): did not lead to quantifiable apixaban concentrations in plasma | time by which concentrations declined below the lower limit of quantitation ([3]; single injection): ≤ 8 h | half-life [3]: 1.3 h | protein binding [3]: highly protein bound

Reference: publication PMC8287028 (Frontiers in Veterinary Science, 2021)
